Results reported in US4301169A, “Novel imidazole compound and anti-depressing agent containing the same” (Eisai Co., Ltd., priority 1978, dated 1981).
Read-outs that look alike come from different tables or passages of the source.

How the values were obtained:
[1] = system: reserpine-induced hypothermia; assay: Anti-reserpine activity (antagonism against reserpine-induced hypothermia); format: in vivo, male ddy mice; details: Mus musculus; minimum dose necessary for increasing body temperature of reserpine-treated mice significantly (P < 0.05) over control; reserpine 2.5 mg/kg i.p., test compound (hydrochloride) oral 18 hours later
Method: (§1) Each test compound is used in the form of a hydrochloride.
(1) Anti-reserpine activity:
The antagonism against the reserpine-induced hypothermia is examined according to the method of B. M. Askew (Life Science, 4, 725-730, 1963).
Male ddy mice having a body weight of 19 to 25 g are used as the test animal. Reserpine is injected intraperitoneally in dose of 2.5 mg/kg, and 18 hours after the injection, the test compound is orally administered and the change of the body temperature with the lapse of time is examined by using a thermistor type thermometer (Model MGA III manufactured by Shibaura Denshi).
The effect of each compound is examined with 2 to 4 dose levels.
Each of the test compound is used in the form of an aqueous solution. The control animal is treated with physiological saline solution. Four animals having a body temperature of 24° to 25° C., 18 hours after the injection of reserpine, are used for each dose. The experiment is carried out in a room at 23° to 25° C.
^(a) The minimum dose necessary for increasing the body temperature o

[2] = Acute toxicity (lethal action); details: mouse, in vivo, mice, hydrochloride, read-out: Acute Toxicity (Lethal Ratio %)
Method: as §1
The test compound is administered in a dose of 100 or 400 mg/kg to mice for examining the lethal action. Five mice are used for each dose level. The lethal ratio is measured 24 hours after oral administration.

spontaneous motility [3] = assay: Influence on spontaneous motility; format: in vivo, male ddy mice; details: Mus musculus, 1 h; 40 mg/kg oral, hydrochloride, 60 minutes before start; 60 minutes measurement; * = significant at P <0.05; read-out: Relative Spontaneous Motility (%) to Control
Method: as §1
(2) Influence on spontaneous motility:
The spontaneous motility is examined according to the method of T. H. Sevensson (Psychopharmacologia, 14, 157, 1969). Three ddy male mice having a body weight of 20 to 25 g are put in a black observation box of an acrylic resin as one group, and the amount of the spontaneous motility during a period of 60 minutes is measured and recorded by using Animex (manufactured by Farrod Co., Sweden).
Sixty minutes before the start of the measurement of the spontaneous motility, the test compound is orally administered in a dose of 40 mg/kg. The control animal is treated with physiological saline solution. Five groups (15 mice) are used for each dose level.
*Significant increase of the spontaneous motility at P <0.05

[4] = system: dopamine and its metabolites in the mouse brain; assay: Effect on the level of dopamine and its metabolites in the mouse brain; format: in vivo
Excerpt: Furthermore, we investigated the effect of the compound of the present invention (compound H and I) on the level of dopamine and its metabolites in the mouse brain. […] This means that the compounds of the invention antagonize against the reserpine-induced depression in a way completely different from the known tricyclic antidepressant.

spontaneous motility [5] = assay: Influence on spontaneous motility; format: in vivo, male ddy mice; details: Mus musculus, po, 1 h; 10 mg/Kg P.O. (footnote b), hydrochloride; * = significant at P <0.05; read-out: Relative Spontaneous Motility (%) to Control

| Compound | minimal effective dose [1] [mg/kg] | mortality at 24 h ([2]; 100 mg/Kg oral) [%] | mortality at 24 h ([2]; 400 mg/Kg oral) [%] | response vs control in vivo at 40 mg/kg (spontaneous motility [3]) [%] | dopamine turnover in the brain [4] | response vs control in vivo at 10 mg/kg (spontaneous motility [5]) [%] |
| --- | --- | --- | --- | --- | --- | --- |
| Cc1ccc(-n2ccnc2C)cc1C [A, 1-(3,4-Dimethylphenyl)-2-methylimidazole] | 2.5 | 0 | 100 | 82 ± 6 |  |  |
| Cc1nccn1-c1ccc(N(C)C)cc1 [B, 1-(4-Dimethylaminophenyl)-2-methylimidazole] | 2.5 | 0 | 80 | 526 ± 24 |  |  |
| CCc1nccn1-c1ccc(Cl)c(Cl)c1 [C, 1-(3,4-Dichlorophenyl)-2-ethylimidazole] | 1.25 to 2.5 | 0 | 20 | 99 ± 7 |  |  |
| Cc1cn(-c2ccc(N)cc2)c(C)n1 [D, 1-(4-Aminophenyl)-2,4-dimethylimidazole] | 5 | 0 | 60 | 473 ± 48 |  |  |
| Cc1nccn1-c1ccc(N)c(C(F)(F)F)c1 [E, 1-(3-Trifluoromethyl-4-aminophenyl)-2-methylimidazole] | 5 | 0 | 0 | 70 ± 8 |  |  |
| CCc1nccn1-c1ccc(N)cc1 [F, 1-(4-Aminophenyl)-2-ethylimidazole] | 1.25 | 0 | 60 | 382 ± 25 |  |  |
| Cc1nccn1-c1ccc(N)cc1Cl [G, 1-(2-Chloro-4-aminophenyl)-2-methylimidazole] | 10 | 0 | 40 | 254 ± 68 |  |  |
| Cc1nccn1-c1cccc(N)c1 [H, 1-(3-Aminophenyl)-2-methylimidazole] | 2.5 | 0 | 0 | 83 ± 3 | reduce dopamine turnover in the brain |  |
| Cc1ccc(-n2ccnc2C)cc1N [I, 1-(3-Amino-4-methylphenyl)-2-methylimidazole] | 5 | 0 | 20 | 58 ± 8 | reduce dopamine turnover in the brain |  |
| CCCCNc1ccc(-n2ccnc2C)cc1 [J, 1-(4-n-Butylaminophenyl)-2-methylimidazole] | 5 | 0 | 60 | 543 ± 57 |  |  |
| Cc1nccn1-c1ccc(N)cc1 [K, 1-(4-Aminophenyl)-2-methylimidazole] | 1.25 | 40 | 80 |  |  | 350 ± 31 |
| Cc1nccn1-c1ccc(NC(=O)c2ccc(Cl)cc2)cc1 [L, 1-[4-(4-Chlorobenzoylamino)phenyl]-2-methylimidazole] | 10 | 0 | 0 | 367 ± 30 |  |  |
| Cc1nccn1-c1ccc(NC(=O)c2ccc(F)cc2)cc1 [M, 1-[4-(4-Fluorobenzoylamino)phenyl]-2-methylimidazole] | 10 | 0 | 0 | 229 ± 30 |  |  |
| CCc1nccn1-c1ccc(NC(=O)c2ccc(Cl)cc2)cc1 [N, 1-[4-(4-Chlorobenzoylamino)phenyl]-2-ethylimidazole] | 2.5 | 0 | 0 | 207 ± 51 |  |  |
| CCc1nccn1-c1ccc(NC(=O)c2ccc(C)cc2)cc1 [O, 1-[4-(4-Methylbenzoylamino)phenyl]-2-ethylimidazole] | 5 | 0 | 20 | 287 ± 23 |  |  |
| CC(C)c1nccn1-c1ccc(NC(=O)c2ccc(Cl)cc2)cc1 [P, 1-[4-(4-Chlorobenzoylamino)phenyl]-2-isopropylimidazole] | 10 | 0 | 0 | 92 ± 14 |  |  |
| Cc1ccc(C(=O)Nc2ccc(-n3ccnc3C)cc2)cc1 [Q, 1-[4-(4-Methylbenzoylamino)phenyl]-2-methylimidazole] | 10 | 0 | 40 | 447 ± 51 |  |  |
